# What was measured:
# [1] = system: Botryotinia fuckeliana (Botrytis cinerea); assay: Botryotinia fuckeliana (Botrytis cinerea) / liquid culture (gray mould); type: cell-based; conditions: inhibition of growth determined photometrically 3-4 days after application, compared to untreated control
# Method: Botryotinia fuckeliana (Botrytis cinerea)/Liquid Culture (Gray Mould) Conidia of the fungus from cryogenic storage are directly mixed into nutrient broth (Vogels broth). After placing a (DMSO) solution of test compound into a microtiter plate (96-well format), the nutrient broth containing the fungal spores is added. The test plates are incubated at 24° C. and the inhibition of growth is determined photometrically 3-4 days after application.
# Fusarium culmorum = assay: microbe, parasite or virus in culture; type: cell-based; conditions: read-out: control of Fusarium culmorum
# [2] = system: Monographella nivalis (Microdochium nivale); assay: Monographella nivalis (Microdochium nivale) / liquid culture (foot rot cereals); type: cell-based; conditions: inhibition of growth determined photometrically 4-5 days after application, compared to untreated control
# [3] = system: Mycosphaerella graminicola (Septoria tritici); assay: Mycosphaerella graminicola (Septoria tritici) / liquid culture (Septoria blotch); type: cell-based; conditions: Zymoseptoria tritici, inhibition of growth determined photometrically 4-5 days after application, compared to untreated control
SMILES,inhibition of growth at 20 ppm [1],inhibition of growth at 20 ppm (Fusarium culmorum),inhibition of growth at 20 ppm [2],inhibition of growth at 6 ppm [3],melting point
"CC1(C)CC(Cc2ccccn2)N=C(c2cnc3c(F)c(F)ccc3c2)S1 (stereo not drawn) [E.01, 2-(7,8-difluoro-3-quinolyl)-6,6-dimethyl-4-(2-pyridylmethyl)-4,5-dihydro-1,3-thiazine]",≥ 80%,≥ 80%,≥ 80%,,
"CC1(C)CC(Cc2ccc(F)nc2)N=C(c2cnc3c(F)c(F)ccc3c2)S1 (stereo not drawn) [E.24, 2-(7,8-difluoro-3-quinolyl)-4-[(6-fluoro-3-pyridyl)methyl]-6,6-dimethyl-4,5-dihydro-1,3-thiazine]",≥ 80%,≥ 80%,≥ 80%,,
"CC1(C)CC(Cc2ccc(Cl)nc2)N=C(c2cnc3c(F)c(F)ccc3c2)O1 (stereo not drawn) [E.09, 4-[(6-chloro-3-pyridyl)methyl]-2-(7,8-difluoro-3-quinolyl)-6,6-dimethyl-4,6-dihydro-1,3-oxazine]",≥ 80%,,≥ 80%,≥ 80%,
"CC1(C)CC(Cc2cscn2)N=C(c2cnc3c(F)c(F)ccc3c2)O1 (stereo not drawn) [E.13, 2-(7,8-difluoro-3-quinolyl)-6,6-dimethyl-4-(thiazol-4-ylmethyl)-4,5-dihydro-1,3-oxazine]",≥ 80%,,≥ 80%,≥ 80%,
"CC1(C)CC(Cn2ccc(Cl)n2)N=C(c2cnc3c(F)c(F)ccc3c2)S1 (stereo not drawn) [E.11, 4-[(3-chloropyrazol-1-yl)methyl]-2-(7,8-difluoro-3-quinolyl)-6,6-dimethyl-4,5-dihydro-1,3-thiazine]",≥ 80%,,≥ 80%,≥ 80%,
"CC1(C)CC(Cn2cc(Cl)cn2)N=C(c2cnc3c(F)c(F)ccc3c2)S1 (stereo not drawn) [E.10, 4-[(4-chloropyrazol-1-yl)methyl]-2-(7,8-difluoro-3-quinolyl)-6,6-dimethyl-4,5-dihydro-1,3-thiazine]",≥ 80%,,≥ 80%,≥ 80%,
"CC1(C)CC(Cc2cnccn2)N=C(c2cnc3c(F)c(F)ccc3c2)S1 (stereo not drawn) [E.05, 2-(7,8-difluoro-3-quinolyl)-6,6-dimethyl-4-(pyrazin-2-ylmethyl)-4,5-dihydro-1,3-thiazine]",≥ 80%,,≥ 80%,,
"CC1(C)CC(Cc2cncs2)N=C(c2cnc3c(F)c(F)ccc3c2)O1 (stereo not drawn) [E.19, 2-(7,8-difluoro-3-quinolyl)-6,6-dimethyl-4-(thiazol-5-ylmethyl)-4,5-dihydro-1,3-oxazine]",≥ 80%,,≥ 80%,,122 to 127 °C
"CC1(C)CC(Cc2cncs2)N=C(c2cnc3c(F)c(F)ccc3c2)S1 (stereo not drawn) [E.16, 2-(7,8-difluoro-3-quinolyl)-6,6-dimethyl-4-(thiazol-5-ylmethyl)-4,5-dihydro-1,3-thiazine]",≥ 80%,,≥ 80%,≥ 80%,
"CC1(C)CC(Cn2cc(C(F)(F)F)cn2)N=C(c2cnc3c(F)c(F)ccc3c2)S1 (stereo not drawn) [E.18, 2-(7,8-difluoro-3-quinolyl)-6,6-dimethyl-4-[[4-(trifluoromethyl)pyrazol-1-yl]methyl]-4,5-dihydro-1,3-thiazine]",,,≥ 80%,,
"CC1(C)CC(Cc2cccc(F)n2)N=C(c2cnc3c(F)c(F)ccc3c2)O1 (stereo not drawn) [E.04, 2-(7,8-difluoro-3-quinolyl)-4-[(6-fluoro-2-pyridyl)methyl]-6,6-dimethyl-4,5-dihydro-1,3-oxazine]",≥ 80%,≥ 80%,≥ 80%,,129 to 131 °C
"CC1(C)CC(Cn2ccc(C(F)F)n2)N=C(c2cnc3c(F)c(F)ccc3c2)S1 (stereo not drawn) [E.12, 4-[[3-(difluoromethyl)pyrazol-1-yl]methyl]-2-(7,8-difluoro-3-quinolyl)-6,6-dimethyl-4,5-dihydro-1,3-thiazine]",≥ 80%,,≥ 80%,≥ 80%,
"CC1(C)CC(Cc2nccs2)N=C(c2cnc3c(F)c(F)ccc3c2)O1 (stereo not drawn) [E.15, 2-(7,8-difluoro-3-quinolyl)-6,6-dimethyl-4-(thiazol-2-ylmethyl)-4,5-dihydro-1,3-oxazine]",≥ 80%,,≥ 80%,≥ 80%,105 to 113 °C
"CC1(C)CC(Cc2ccsc2)N=C(c2cnc3c(F)c(F)ccc3c2)[S+]1[O-] (stereo not drawn) [E.25, 2-(7,8-difluoro-3-quinolyl)-6,6-dimethyl-4-(3-thienylmethyl)-4,5-dihydro-1,3-thiazine 1-oxide]",,≥ 80%,≥ 80%,,
"CC1(C)CC(Cc2nccs2)N=C(c2cnc3c(F)c(F)ccc3c2)S1 (stereo not drawn) [E.14, 2-(7,8-difluoro-3-quinolyl)-6,6-dimethyl-4-(thiazol-2-ylmethyl)-4,5-dihydro-1,3-thiazine]",≥ 80%,,≥ 80%,≥ 80%,
"CC1(C)CC(Cc2cccnc2)N=C(c2cnc3c(F)c(F)ccc3c2)S1 (stereo not drawn) [E.06, 2-(7,8-difluoro-3-quinolyl)-6,6-dimethyl-4-(3-pyridylmethyl)-4,5-dihydro-1,3-thiazine]",≥ 80%,≥ 80%,≥ 80%,,
"CC1(C)CC(Cc2ccccn2)N=C(c2cnc3c(F)c(F)ccc3c2)O1 (stereo not drawn) [E.03, 2-(7,8-difluoro-3-quinolyl)-6,6-dimethyl-4-(2-pyridylmethyl)-4,5-dihydro-1,3-oxazine]",≥ 80%,,≥ 80%,,120 to 123 °C
"CC1(C)CC(Cc2ccsc2)N=C(c2cnc3c(F)cccc3c2)S1 (stereo not drawn) [E.23, 2-(8-fluoro-3-quinolyl)-6,6-dimethyl-4-(3-thienylmethyl)-4,5-dihydro-1,3-thiazine]",≥ 80%,≥ 80%,≥ 80%,,
"CC1(C)CC(Cc2cccc(F)n2)N=C(c2cnc3c(F)c(F)ccc3c2)S1 (stereo not drawn) [E.02, 2-(7,8-difluoro-3-quinolyl)-4-[(6-fluoro-2-pyridyl)methyl]-6,6-dimethyl-4,5-dihydro-1,3-thiazine]",≥ 80%,≥ 80%,≥ 80%,≥ 80%,
"CC1(C)CC(Cc2ccsc2)N=C(c2cnc3c(F)c(F)ccc3c2)S1 (stereo not drawn) [E.07, 2-(7,8-difluoro-3-quinoyl)-6,6-dimethyl-4-(3-thienylmethyl)-4,5-dihydro-1,3-thiazine]",≥ 80%,≥ 80%,≥ 80%,,
"CC1(C)CC(Cc2ccncc2)N=C(c2cnc3c(F)c(F)ccc3c2)S1 (stereo not drawn) [E.26, 2-(7,8-difluoro-3-quinolyl)-6,6-dimethyl-4-(4-pyridylmethyl)-4,5-dihydro-1,3-thiazine]",≥ 80%,,≥ 80%,,
"CC1(C)CC(Cn2cc(F)cn2)N=C(c2cnc3c(F)c(F)ccc3c2)S1 (stereo not drawn) [E.17, 2-(7,8-difluoro-3-quinolyl)-4-[(4-fluoropyrazol-1-yl)methyl]-6,6-dimethyl-4,5-dihydro-1,3-thiazine]",≥ 80%,,≥ 80%,,
"CC1(C)CC(Cc2cccnc2)N=C(c2cnc3c(F)cccc3c2)O1 (stereo not drawn) [E.22, 2-(8-fluoro-3-quinolyl)-6,6-dimethyl-4-(3-pyridylmethyl)-4,5-dihydro-1,3-oxazine]",≥ 80%,,≥ 80%,,
"CC1(C)CC(Cc2cccnc2)N=C(c2cnc3c(F)cccc3c2)S1 (stereo not drawn) [E.20, 2-(8-fluoro-3-quinolyl)-6,6-dimethyl-4-(3-pyridylmethyl)-4,5-dihydro-1,3-thiazine]",,,,≥ 80%,
